Measured values reported in paper PMC3276500, “Caffeic Acid Phenethyl Ester and Its Amide Analogue Are Potent Inhibitors of Leukotriene Biosynthesis in Human Polymorphonuclear Leukocytes” (PLoS ONE, 2012).
pIC50: −log10 of the molar value.

Target: T1, 5-lipoxygenase (5-LO) (Homo sapiens, UniProt P09917)
T1 construct: gene ALOX5
T1 sequence (P09917 1-674): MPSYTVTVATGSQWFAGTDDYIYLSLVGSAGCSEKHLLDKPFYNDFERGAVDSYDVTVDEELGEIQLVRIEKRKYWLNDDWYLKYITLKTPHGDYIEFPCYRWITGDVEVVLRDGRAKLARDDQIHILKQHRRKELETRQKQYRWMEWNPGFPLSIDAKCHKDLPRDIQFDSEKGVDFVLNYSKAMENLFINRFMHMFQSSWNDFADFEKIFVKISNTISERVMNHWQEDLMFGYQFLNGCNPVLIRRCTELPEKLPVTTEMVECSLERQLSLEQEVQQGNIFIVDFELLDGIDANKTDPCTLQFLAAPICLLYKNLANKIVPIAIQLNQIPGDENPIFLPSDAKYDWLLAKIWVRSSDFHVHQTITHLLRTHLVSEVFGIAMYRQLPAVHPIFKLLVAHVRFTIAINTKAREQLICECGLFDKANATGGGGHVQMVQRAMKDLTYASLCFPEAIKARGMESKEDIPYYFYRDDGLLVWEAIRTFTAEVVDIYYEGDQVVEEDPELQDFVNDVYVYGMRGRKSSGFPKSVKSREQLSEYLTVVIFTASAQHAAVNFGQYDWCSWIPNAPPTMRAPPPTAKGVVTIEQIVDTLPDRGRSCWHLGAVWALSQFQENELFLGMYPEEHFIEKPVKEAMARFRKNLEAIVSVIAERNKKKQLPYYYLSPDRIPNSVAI
Experiment: cell-free 5-LO activity assay in lysate supernatant of HEK293 cells stably transfected with 5-LO, RP-HPLC of products
Type: biochemical

Question: With `O=C(/C=C/c1ccc(O)c(O)c1)OCCc1ccccc1` [compound 1, CAPE] as the compound, how does the pIC50 read?
Answer: The pIC50 was 6.89.

Question: `O=C(/C=C/c1ccc(O)c(O)c1)NCCc1ccccc1` [compound 9] was tested. Which pIC50 did it give?
Answer: Its pIC50 is 5.62.
